One assay concerns the target human FPR2 (Homo sapiens (Human), UniProt P25090). As to the kind of experiment: FPR2 cyclic adenosine monophosphate (cAMP) assay. Format: cell-based. As to conditions: CHO cells overexpressing human FPR2. The protocol: (§1) FPR2 and FPR1 Cyclic Adenosine Monophosphate (cAMP) Assays. A mixture of forskolin (5 μM final for FPR2 or 10 μM final for FPR1) and IBMX (200 μM final) were added to 384-well Proxiplates (Perkin-Elmer) pre-dotted with test compounds in DMSO (1% final) at final concentrations in the range of 1.7 nM to 100 μM. Chinese Hamster Ovary cells (CHO) overexpressing human FPR1 or human FPR2 receptors were cultured in F-12 (Ham's) medium supplemented with 10% qualified FBS, 250 μg/ml zeocin and 300 μg/ml hygromycin (Life Technologies). Reactions were initiated by adding 2,000 human FPR2 cells per well or 4,000 human FPR1 cells per well in Dulbecco's PBS (with calcium and magnesium) (Life Technologies) supplemented with 0.1% BSA (Perkin-Elmer). The reaction mixtures were incubated for 30 min at room temperature. The level of intracellular cAMP was determined using the HTRF HiRange cAMP assay reagent kit (Cisbio) according to manufacturer's instruction. Solutions of cryptate conjugated anti-cAMP and d2 flurorophore-labelled cAMP were made in a supplied lysis buffer separately. Upon completion of the reaction, the cells were lysed with equal volume of the d2-cAMP solution and anti-cAMP solution. After a 1-h room temperature incubation, time-resolved fluorescence intensity was measured using the Envision (Perkin-Elmer) at 400 nm excitation and dual emission at 590 nm and 665 nm. A calibration curve was constructed with an external cAMP standard at concentrations ranging from 1 μM to 0.1 pM by plotting the fluorescent intensity ratio from 665 nm emission to the intensity from the 590 nm emission against cAMP concentrations. The potency and activity of a compound to inhibit cAMP production was then determined by fitting to a 4-parametric logistic equation from a plot of cAMP level versus compound concentrations.

The next assay addresses human FPR1 (Homo sapiens (Human), UniProt P21462). Put plainly: FPR1 cyclic adenosine monophosphate (cAMP) assay. Format: cell-based. The settings on record: CHO cells overexpressing human FPR1; forskolin 10 μM; inhibition of cAMP production; read-out: hFPR1 cAMP EC50. The protocol:
as §1

Setting [1] is: cAMP assay, read-out: hFPR2 agonist activity EC50 (hFPR2 Assay).
The mark [2] stands for this setting: forskolin 5 μM, inhibition of cAMP production, read-out: hFPR2 cAMP2 EC50.

Experimental findings from patent publication US11008301B2, “Piperidinone formyl peptide 2 receptor agonists” (BRISTOL-MYERS SQUIBB COMPANY, priority 2017, dated 2021) are described below.

Each structure is given as a SMILES string. Read-outs that look alike come from different tables or passages of the source.

human FPR1, sequence (P21462 whole entry): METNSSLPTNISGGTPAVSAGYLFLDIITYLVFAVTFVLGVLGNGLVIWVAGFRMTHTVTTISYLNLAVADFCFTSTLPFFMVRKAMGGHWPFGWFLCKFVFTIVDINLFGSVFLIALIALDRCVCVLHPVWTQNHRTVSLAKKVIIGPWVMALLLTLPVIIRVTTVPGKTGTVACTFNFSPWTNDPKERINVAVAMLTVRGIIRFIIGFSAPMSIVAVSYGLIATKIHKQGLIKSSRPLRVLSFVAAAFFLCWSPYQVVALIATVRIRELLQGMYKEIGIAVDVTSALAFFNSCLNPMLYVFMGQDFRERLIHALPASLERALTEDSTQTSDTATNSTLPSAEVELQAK
human FPR2, sequence (P25090 whole entry): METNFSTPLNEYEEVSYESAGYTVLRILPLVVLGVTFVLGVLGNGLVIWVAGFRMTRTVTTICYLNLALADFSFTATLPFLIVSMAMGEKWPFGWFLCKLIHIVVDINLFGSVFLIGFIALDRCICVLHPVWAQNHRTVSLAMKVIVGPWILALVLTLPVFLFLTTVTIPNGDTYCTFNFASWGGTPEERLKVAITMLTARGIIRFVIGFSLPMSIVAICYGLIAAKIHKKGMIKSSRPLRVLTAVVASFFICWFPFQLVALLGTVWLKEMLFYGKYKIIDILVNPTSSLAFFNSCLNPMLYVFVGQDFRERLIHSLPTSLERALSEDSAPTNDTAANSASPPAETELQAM

On to `O=C(Nc1ccc(C(F)(F)F)cc1)N[C@@H]1CCCN(c2ccc(N3CCCCC3=O)cc2)C1=O` [Example 4], for which the EC50 on human FPR2 (setting [1]) was 10 to 100 nM; at human FPR2 (setting [2]), 28 nM; at human FPR1 it was 410 nM.

`O=C(Nc1ccc(C(F)(F)F)cc1)N[C@H]1CCCN(c2ccc(N3CC4(COC4)C3)cc2)C1=O` [Example 9]: the EC50 on human FPR2 (setting [1]) was 100 to 1000 nM; on human FPR2 (setting [2]), 540 nM; on human FPR1 it was 1500 nM. Take `O=C(Nc1ccc(C(F)(F)F)cn1)N[C@@H]1CCCN(c2ccc(N3CC4(COC4)C3)cc2)C1=O` [Example 12]: the EC50 at human FPR2 (setting [1]) was 100 to 1000 nM; at human FPR2 (setting [2]) it was 380 nM; at human FPR1 it was 5000 nM. With `COCC1CCCCN1c1ccc(N2CCC[C@@H](NC(=O)Nc3ccc(C(F)(F)F)cc3)C2=O)cc1` (stereo partly drawn) [Example 14], the EC50 on human FPR2 (setting [2]) was 2.1 nM; on human FPR1, 36 nM. As for `COCC1CCCCN1c1ccc(N2CCC[C@@H](NC(=O)Nc3ccc(C(F)(F)F)nc3)C2=O)cc1` (stereo partly drawn) [Example 15], the results for the EC50 at human FPR2 (setting [2]) and on human FPR1 were 32 nM and 660 nM, respectively. Turning to `COC[C@@H]1CCCN1c1ccc(N2CCC[C@@H](NC(=O)Nc3ccc(Cl)cc3)C2=O)cc1` [Example 26], the EC50 is at most 10 nM on human FPR2 (setting [1]), 3.7 nM on human FPR2 (setting [2]) and 12 nM at human FPR1. As to `CS(=O)(=O)N1CCN(c2ccc(N3CCC[C@@H](NC(=O)Nc4ccc(C(F)(F)F)cc4)C3=O)cc2)CC1` [Example 34], the figures for the EC50 on human FPR2 (setting [2]) and at human FPR1 were 400 nM and 2200 nM, respectively. On to `O=C(Nc1ccc(C(F)(F)F)cc1)N[C@@H]1CCCN(c2ccc(N3CCCCC3)cc2)C1=O` [Example 45], for which the concentration for a half-maximal effect (EC50) on human FPR2 (setting [2]) amounted to 3 nM; at human FPR1, 11 nM. For the compound `O=C(Nc1ccc(C(F)(F)F)nc1)N[C@@H]1CCCN(c2ccc(N3CCCCC3=O)cc2F)C1=O` [Example 50], the EC50 was 330 nM at human FPR2 (setting [2]) and above 10000 nM on human FPR1. For `O=C(Nc1ccc(C(F)(F)F)cc1)N[C@@H]1CCCN(c2ccc(N3CCOCC3)nc2)C1=O` [Example 54, (R)-1-(1-(6-Morpholinopyridin-3-yl)-2-oxopiperidin-3-yl)-3-(4-(trifluoromethyl)phenyl)urea] the same measures were 31 nM and 920 nM. Turning to `O=C(Nc1ccc(C(F)(F)F)cc1)N[C@@H]1CCCN(c2ccc(N3CCCC(CO)C3)nc2)C1=O` (stereo partly drawn) [Example 56], the EC50 at human FPR2 (setting [2]) came to 1.8 nM; at human FPR1 it was 45 nM. Take `CC(=O)N[C@@H]1CCN(c2ccc(N3CCC[C@@H](NC(=O)Nc4ccc(C(F)(F)F)cc4)C3=O)cc2)C1` [Example 69]: the EC50 at human FPR2 (setting [2]) stood at 14 nM; on human FPR1 it was 190 nM. `O=C(Nc1ccc(C(F)(F)F)cc1)N[C@@H]1CCCN(c2ccc(N3CCCC(F)(F)C3)cc2)C1=O` [Example 70]: the EC50 at human FPR2 (setting [2]) is 2.4 nM; on human FPR1, 67 nM. Take `CN(C)C1CCCN(c2ccc(N3CCC[C@@H](NC(=O)Nc4ccc(C(F)(F)F)cc4)C3=O)cc2)C1` (stereo partly drawn) [Example 77]: the results for the EC50 on human FPR2 (setting [2]) and on human FPR1 were 0.18 nM and 1100 nM, respectively.

With `CN(C)C1CN(c2ccc(N3CCC[C@@H](NC(=O)Nc4ccc(C(F)(F)F)cc4)C3=O)cc2)CC1O` (stereo partly drawn) [Example 79], the 50% effective concentration (EC50) at human FPR2 (setting [1]) is at most 10 nM. With `O=C(Nc1ccc(Cl)cc1F)N[C@@H]1CCCN(c2ccc(N3CCCCC3=O)c(F)c2F)C1=O` [Example 80], the EC50 on human FPR2 (setting [1]) is at most 10 nM. In the case of `CN(C)C1CCN(c2ccc(N3CCC[C@@H](NC(=O)Nc4ccc(Cl)cc4F)C3=O)c(F)c2)C1` (stereo partly drawn) [Example 81], the values for the EC50 on human FPR2 (setting [2]) and at human FPR1 were 0.31 nM and 1700 nM, respectively. Take `O=C(Nc1ccc(Cl)cc1F)N[C@@H]1CCCN(c2ccc(N3CC[C@@H](F)C3)cc2)C1=O` [Example 82]: the concentration giving a half-maximal response (EC50) on human FPR2 (setting [1]) is at most 10 nM. On to `CN(C)C1CCN(c2ccc(N3CCC[C@@H](NC(=O)Nc4ccc(Cl)cc4)C3=O)cc2F)C1` (stereo partly drawn) [Example 83], for which the EC50 on human FPR2 (setting [2]) stood at 0.39 nM; on human FPR1, 1100 nM.

For `CN(C)C1CN(c2ccc(N3CCC[C@@H](NC(=O)Nc4ccc(C(F)(F)F)cc4)C3=O)cc2)CC1F` (stereo partly drawn) [Example 84], at human FPR2 (setting [1]), the EC50 is at most 10 nM.

Take `CN(CC(F)(F)F)C1CCN(c2ccc(N3CCC[C@@H](NC(=O)Nc4ccc(Cl)cc4)C3=O)c(F)c2F)C1` (stereo partly drawn) [Example 85]: the EC50 at human FPR2 (setting [1]) was at most 10 nM. Same read-out and setting: with `CN(C)C(=O)C1CCN(c2ccc(N3CCC[C@@H](NC(=O)Nc4ccc(Cl)cc4F)C3=O)cc2)C1` (stereo partly drawn) [Example 86] the figure was at most 10 nM; with `CS(=O)(=O)C1CCN(c2ccc(N3CCC[C@@H](NC(=O)Nc4ccc(Cl)cc4)C3=O)c(F)c2F)C1` (stereo partly drawn) [Example 87], at most 10 nM. Take `O=C(Nc1ccc(Cl)cc1F)N[C@@H]1CCCN(c2ccc(N3CC[C@@H](F)C3)c(F)c2F)C1=O` [Example 88]: the half-maximal effective concentration (EC50) on human FPR2 (setting [1]) was at most 10 nM. Still for that read-out and setting: under `CS(=O)(=O)C1CCN(c2ccc(N3CCC[C@@H](NC(=O)Nc4ccc(Cl)cc4F)C3=O)c(F)c2F)C1` (stereo partly drawn) [Example 89] stands at most 10 nM; under `CS(=O)(=O)C1CCN(c2cc(F)c(N3CCC[C@@H](NC(=O)Nc4ccc(Cl)cc4F)C3=O)c(F)c2)C1` (stereo partly drawn) [Example 90], at most 10 nM; under `CC1(O)CCCN(c2ccc(N3CCC[C@@H](NC(=O)Nc4ccc(Cl)cc4)C3=O)cc2)C1` (stereo partly drawn) [Example 93], at most 10 nM.

Regarding `CC1(O)CCN(c2ccc(N3CCC[C@@H](NC(=O)Nc4ccc(Cl)cc4)C3=O)cc2)C1` (stereo partly drawn) [Example 94], the EC50 on human FPR2 (setting [1]) is at most 10 nM. For the compound `O=C(Nc1ccc(Cl)cc1)N[C@@H]1CCCN(c2ccc(N3C[C@H]4COC[C@H]4C3)cc2)C1=O` [Example 95], the figures for the EC50 on human FPR2 (setting [2]) and at human FPR1 were 2.5 nM and 76 nM, respectively.

On to `O=C(Nc1ccc(Cl)cc1)N[C@@H]1CCCN(c2ccc(N3CCC4(CC4)C3)cc2)C1=O` [Example 96], for which the EC50 at human FPR2 (setting [1]) was at most 10 nM.

`O=C(Nc1ccc(Cl)cc1)N[C@@H]1CCCN(c2ccc(N3CCC(C4CC4)C3)cc2)C1=O` (stereo partly drawn) [Example 97]: the EC50 on human FPR2 (setting [1]) was at most 10 nM. On the same count and under the same terms, with `O=C(Nc1ccc(Cl)cc1)N[C@@H]1CCCN(c2ccc(N3C[C@@H](F)[C@@H](F)C3)cc2)C1=O` [Example 98] the figure was at most 10 nM; with `CC1(F)CCN(c2ccc(N3CCC[C@@H](NC(=O)Nc4ccc(Cl)cc4)C3=O)cc2)CC1` [Example 99], at most 10 nM; with `O=C(Nc1ccc(Cl)cc1)N[C@@H]1CCCN(c2ccc(N3CCC(O)(C(F)(F)F)CC3)cc2)C1=O` [Example 100], at most 10 nM. Still for that read-out and setting: with `O=C(Nc1ccc(Cl)cc1)N[C@@H]1CCCN(c2ccc(N3CCC4(CCCO4)CC3)cc2)C1=O` [Example 101] the figure was at most 10 nM.

Take `O=C(Nc1ccc(Cl)cc1)N[C@@H]1CCCN(c2ccc(N3CCC4(CCCO4)CC3)cc2)C1=O` [Example 102]: the figures for the EC50 at human FPR2 (setting [2]) and on human FPR1 were 15 nM and 61 nM, respectively. For `CN(C)C1CCN(c2ccc(N3CCC[C@@H](NC(=O)Nc4ccc(Cl)cc4)C3=O)cn2)C1` (stereo partly drawn) [Example 103], on human FPR2 (setting [1]), the EC50 is at most 10 nM.

Take `O=C(Nc1ccc(C(F)(F)F)cc1)N[C@@H]1CCCN(c2ccc(N3C[C@H]4CC[C@@H](C3)O4)nc2)C1=O` [Example 104]: the results for the EC50 at human FPR2 (setting [2]) and on human FPR1 were 18 nM and 630 nM, respectively. In the case of `O=C(Nc1ccc(Cl)cc1F)N[C@@H]1CCCN(c2ccc(N3CC[C@@H](F)C3)nc2)C1=O` [Example 105], the EC50 on human FPR2 (setting [1]) was at most 10 nM. For the compound `O=C(Nc1ccc(Cl)cc1F)N[C@@H]1CCCN(c2ccc(N3CC[C@@H](O)C3)nc2)C1=O` [Example 106], the EC50 on human FPR2 (setting [1]) was at most 10 nM.

Turning to `O=C(Nc1ccc(Cl)cc1)N[C@@H]1CCCN(c2ccc(N3C[C@H]4CC[C@@H](C3)O4)cc2F)C1=O` [Example 107], the EC50 at human FPR2 (setting [2]) worked out at 2.6 nM; at human FPR1, 330 nM.

As to `CS(=O)(=O)C1CCN(c2ccc(N3CCC[C@@H](NC(=O)Nc4ccc(C(F)(F)F)cc4)C3=O)cc2)C1` (stereo partly drawn) [Example 108], the concentration giving a half-maximal response (EC50) on human FPR2 (setting [1]) was at most 10 nM.

By EC50 is commonly meant the concentration that produces a half-maximal response.
